Results reported in patent publication US20070167452A1, “Therapeutic amide derivatives” (PFIZER, INC., priority 2004, published 2007).

Assays:
[1] = biological target: Human HERG (Homo sapiens, UniProt Q12809); experiment: Human Dofetilide Binding Assay
Procedure: Human HERG transfected HEK293S cells were prepared and grown in-house. The collected cells were suspended in 50 mM Tris-HCl (pH 7.4 at 4° C.) and homogenized using a hand held Polytron PT 1200 disruptor set at full power for 20 sec on ice. The homogenates were centrifuged at 48,000×g at 4° C. for 20 min. The pellets were then resuspended, homogenized, and centrifuged once more in the same manner. The final pellets were resuspended in an appropriate volume of 50 mM Tris-HCl, 10 mM KCl, 1 mM MgCl2 (pH 7.4 at 4° C.), homogenized, aliquoted and stored at −80° C. until use. An aliquot of membrane fractions was used for protein concentration determination using BCA protein assay kit (PIERCE) and ARVOsx plate reader (Wallac).
Binding assays were conducted in a total volume of 200 μl in 96-well plates. Twenty μl of test compounds were incubated with 20 μl of [^3H]-dofetilide (Amersham, final 5 nM) and 160 μl of membrane homogenate (25 μg protein) for 60 minutes at room temperature. Nonspecific binding was determined by 10 μM dofetilide at the final concentration. Incubation was terminated by rapid vacuum filtration over 0.5% presoaked GF/B Betaplate filter using Skatron cell harvester with 50 mM Tris-HCl, 10 mM KCl, 1 mM MgCl2, pH 7.4 at 4° C. The filters were dried, put into sample bags and filled with Betaplate Scint. Radioactivity bound to filter was counted with Wallac Betaplate counter.

[2] = biological target: T1, NR2B receptor (Rattus norvegicus, UniProt P35439+Q00960); experiment: NR2B Binding Assay; conditions: forebrain P2 membranes of male CD rats; 5 nM [3H] NR2B ligand
T1 construct: Membranes were prepared by homogenization of forebrain of male CD rats; from tissue; host or cells: forebrain of male CD rats (P2 membrane)
T1 sequence (Q00960 27-1482, other chains not shown): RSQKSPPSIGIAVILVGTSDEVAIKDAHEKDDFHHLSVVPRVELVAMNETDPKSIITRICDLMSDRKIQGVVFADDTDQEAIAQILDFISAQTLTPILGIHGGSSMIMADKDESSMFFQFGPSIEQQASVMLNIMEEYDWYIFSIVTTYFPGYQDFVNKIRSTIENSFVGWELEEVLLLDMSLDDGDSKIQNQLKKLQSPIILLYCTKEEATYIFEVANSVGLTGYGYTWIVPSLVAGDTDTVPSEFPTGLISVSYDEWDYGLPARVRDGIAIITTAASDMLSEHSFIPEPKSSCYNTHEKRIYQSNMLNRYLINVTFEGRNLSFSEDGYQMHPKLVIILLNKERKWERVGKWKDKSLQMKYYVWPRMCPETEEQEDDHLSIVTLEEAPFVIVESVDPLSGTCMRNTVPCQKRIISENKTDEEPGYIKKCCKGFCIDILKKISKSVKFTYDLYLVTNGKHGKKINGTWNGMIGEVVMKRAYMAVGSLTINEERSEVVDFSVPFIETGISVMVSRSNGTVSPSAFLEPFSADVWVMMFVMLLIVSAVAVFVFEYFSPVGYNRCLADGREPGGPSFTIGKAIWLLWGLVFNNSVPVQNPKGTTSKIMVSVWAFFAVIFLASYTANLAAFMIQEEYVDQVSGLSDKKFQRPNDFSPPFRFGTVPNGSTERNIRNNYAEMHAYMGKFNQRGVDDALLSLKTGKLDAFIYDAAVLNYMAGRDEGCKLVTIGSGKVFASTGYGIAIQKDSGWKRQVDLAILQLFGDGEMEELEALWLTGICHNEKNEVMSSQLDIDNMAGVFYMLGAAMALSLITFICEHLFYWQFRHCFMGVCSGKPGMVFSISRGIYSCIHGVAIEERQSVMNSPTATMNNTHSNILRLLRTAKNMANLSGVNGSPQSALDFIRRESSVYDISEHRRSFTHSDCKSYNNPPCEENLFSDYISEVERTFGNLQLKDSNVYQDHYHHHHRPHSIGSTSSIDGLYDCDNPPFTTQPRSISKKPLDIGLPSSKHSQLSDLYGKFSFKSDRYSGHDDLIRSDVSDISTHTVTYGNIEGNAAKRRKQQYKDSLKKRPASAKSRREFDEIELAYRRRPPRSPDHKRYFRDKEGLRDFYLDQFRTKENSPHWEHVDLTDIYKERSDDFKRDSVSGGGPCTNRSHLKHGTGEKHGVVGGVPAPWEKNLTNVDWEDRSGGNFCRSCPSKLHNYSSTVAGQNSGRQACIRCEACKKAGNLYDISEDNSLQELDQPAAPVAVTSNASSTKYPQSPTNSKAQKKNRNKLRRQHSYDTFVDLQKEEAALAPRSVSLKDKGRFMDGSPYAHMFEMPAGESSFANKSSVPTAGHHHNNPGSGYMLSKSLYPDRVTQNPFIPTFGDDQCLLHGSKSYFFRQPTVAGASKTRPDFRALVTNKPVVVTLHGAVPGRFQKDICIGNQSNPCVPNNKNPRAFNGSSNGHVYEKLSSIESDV
Procedure: The activity of the cycloalkylene amide compounds of the present invention, as NR2B antagonists, is determined by their ability to inhibit the binding of NR2B subunit at its receptor sites employing radioactive ligands.
The NR^2B antagonist activity of the cycloalkylene amide compounds is evaluated by using the standard assay procedure described in, for example, J. Pharmacol., 331, pp 117-126, 1997. This method essentially involves determining the concentration of the individual compound required to reduce the amount of radiolabelled NR2B ligands by 50% at their receptor sites, thereby affording characteristic IC50 values for each compound tested. More specifically, the assay is carried out as follows.
Membranes were prepared by homogenization of forebrain of male CD rats weighing between 170˜190 g by using glass-Teflon homogenizer in 0.32 M sucrose at 4° C. The crude nuclear pellet was removed by centrifugation at 1000×g for 10 min, and the supernatant centrifuged at 17000×g for 25 min. The resulting pellet was resuspended in 5 mM Tris acetate pH 7.4 at 4° C. for 10 min to lyse cellular particles and again centrifuged at 17000×g. The resulting pellet (P2 membrane) was washed twice in Tris acetate, resuspended at 5.5 mg protein/ml and stored at −20° C. until use. All the manipulation was done on ice, and stock solution and equipment were kept on ice at all time.
For the saturation assay, receptor saturation was determined by incubating [^3H]-1-[(1S*,2S*)-2-hydroxy-2-(4-hydroxyphenyl)-1-methylethyl]-4-phenylpiperidin-4-ol and 50 μg protein of P2 membrane for 60 minutes at room temperature in a final 100 μl of incubation buffer (50 mM Tris HCl, pH7.4). Total and non-specific bindings (in the presence of 10 μM of unlabeled 1-[(1S*,2S*)-2-hydroxy-2-(4-hydroxyphenyl)-1-methylethyl]-4-phenylpiperidin-4-ol) were determined in a range of [^3H]-1-[(1S*,2S*)-2-hydroxy-2-(4-hydroxyphenyl)-1-methylethyl]-4-phenylpiperidin-4-ol concentrations (0.625 nM to 60 nM).
For the competition assay, test compounds were incubated in duplicate with 5 nM [^3H]-1-[(1S*,2S*)-2-hydroxy-2-(4-hydroxyphenyl)-1-methylethyl]-4-phenylpiperidin-4-ol and 50 μg protein of P2 membrane for 60 minutes at room temperature in a final 100 μl of 50 mM Tris HCl buffer (pH7.4). Nonspecific binding was determined by 10 μM of unlabeled 1-[(1S*,2S*)-2-hydroxy-2-(4-hydroxyphenyl)-1-methylethyl]-4-phenylpiperidin-4-ol (25 μl). The saturation derived KD gained in saturation assay was used for all Ki calculations.
All incubations were terminated by rapid vacuum filtration over 0.2% polyethyleneimine soaked Whatman GF/B glass fibre filter paper using a SKATRON cell harvester followed by three washes with ice-cold filtration buffer (5 mM Tris HCl, pH 7.4.). Receptor-bound radioactivity was quantified by liquid scintillation counting using Packard LS counter. Competition assays were performed by counting Wallac GF/B filters on Betaplate scintillation counter (Wallac).

Human HERG, sequence (Q12809 whole entry): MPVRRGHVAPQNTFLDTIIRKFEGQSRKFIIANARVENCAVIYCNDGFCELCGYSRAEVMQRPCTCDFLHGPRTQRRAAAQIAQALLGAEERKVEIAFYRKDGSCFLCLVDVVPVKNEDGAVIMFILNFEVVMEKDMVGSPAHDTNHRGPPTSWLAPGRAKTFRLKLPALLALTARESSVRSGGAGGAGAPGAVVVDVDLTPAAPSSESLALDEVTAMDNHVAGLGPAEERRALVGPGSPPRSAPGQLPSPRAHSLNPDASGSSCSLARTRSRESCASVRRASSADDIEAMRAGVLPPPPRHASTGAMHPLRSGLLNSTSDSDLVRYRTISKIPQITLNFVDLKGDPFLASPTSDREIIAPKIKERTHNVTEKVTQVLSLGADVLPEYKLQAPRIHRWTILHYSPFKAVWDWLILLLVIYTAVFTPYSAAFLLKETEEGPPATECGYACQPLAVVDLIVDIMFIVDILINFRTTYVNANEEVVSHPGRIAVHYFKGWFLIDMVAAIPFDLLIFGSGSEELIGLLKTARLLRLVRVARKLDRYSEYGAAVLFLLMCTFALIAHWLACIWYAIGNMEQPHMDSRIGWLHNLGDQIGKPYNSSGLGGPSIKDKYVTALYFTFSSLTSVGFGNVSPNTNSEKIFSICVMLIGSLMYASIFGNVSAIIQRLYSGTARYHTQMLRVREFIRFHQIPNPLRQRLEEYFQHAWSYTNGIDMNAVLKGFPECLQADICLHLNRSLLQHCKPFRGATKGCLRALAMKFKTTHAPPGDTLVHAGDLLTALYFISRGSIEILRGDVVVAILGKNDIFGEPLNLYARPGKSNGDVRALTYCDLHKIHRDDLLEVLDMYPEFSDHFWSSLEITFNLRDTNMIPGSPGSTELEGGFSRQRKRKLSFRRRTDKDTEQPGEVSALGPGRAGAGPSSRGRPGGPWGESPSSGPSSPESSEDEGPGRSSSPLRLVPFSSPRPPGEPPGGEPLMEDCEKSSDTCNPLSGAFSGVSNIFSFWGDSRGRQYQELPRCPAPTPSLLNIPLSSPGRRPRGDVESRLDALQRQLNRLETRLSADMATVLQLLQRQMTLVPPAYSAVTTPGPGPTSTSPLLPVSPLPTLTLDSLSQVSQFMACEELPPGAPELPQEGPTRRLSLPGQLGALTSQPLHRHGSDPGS

Row | Compound | IC50 [2] | IC50 [1]
1 | O=C(NC[C@]1(O)CC[C@H](COCc2ccccc2F)CC1)c1ccc(O)c(F)c1 [Example 69, 3-Fluoro-N-[(trans-4-{[(2-fluorobenzyl)oxy]methyl}-1-hydroxycyclohexyl)methyl]-4-hydroxybenzamide] | 0.0132 µM | > 100 µM
2 | O=C(NC[C@H]1CC[C@@H](CCOc2ccccc2)CC1)c1cc(F)c(O)c(F)c1 [Example 91, 3,5-Difluoro-4-hydroxy-N-{[cis-4-(2-phenoxyethyl)cyclohexyl]methyl}benzamide] | 0.013 µM | > 30 µM
3 | O=C(NC[C@H]1CC[C@@H](COc2ccccn2)CC1)c1cn[nH]c1 [Example 105, N-({cis-4-[(Pyridin-2-yloxy)methyl]cyclohexyl}methyl)-1H-pyrazole-4-carboxamide] | 0.0272 µM | > 100 µM
4 | O=C(NC[C@H]1CC[C@@H](COc2cccc(F)c2)CC1)c1cn[nH]c1 [Example 106, N-({cis-4-[(3-Fluorophenoxy)methyl]cyclohexyl}methyl)-1H-pyrazole-4-carboxamide] | 0.016 µM | 29.1 µM
5 | O=C(NC[C@H]1CC[C@@H](COc2ccc(Cl)cc2)CO1)c1cc(F)c(O)c(F)c1 [Example 126, N-({(2R,5R)-5-[(4-Chlorophenoxy)methyl]tetrahydro-2H-pyran-2-yl}methyl)-3,5-difluoro-4-hydroxybenzamide] | 0.0181 µM | > 100 µM
6 | O=C(NC[C@@H]1CCC[C@H](OCCc2ccccc2)C1)c1cn[nH]c1 (single isomer, unassigned) [Example 116] | 0.0259 µM | > 100 µM
7 | O=C(NC[C@@H]1CC[C@H](COCc2ccccc2)CO1)c1ccc(O)cc1 [Example 40, 4-Hydroxy-N-{[5R-(benzyloxymethyl)tetrahydro-2H-pyran-2R-yl]methyl}benzamide] | 0.0104 µM | > 100 µM
8 | O=C(NC[C@H]1CC[C@@H](COc2ccccc2)CO1)c1ccc(O)cc1 [Example 35, (+)-4-Hydroxy-N-{[5S-(phenoxymethyl)tetrahydro-2H-pyran-2S-yl]methyl}benzamide] | 0.0209 µM | 51.6 µM
9 | O=C(NC[C@]1(O)CC[C@H](OCc2ccccc2)CC1)c1ccc(O)cc1 [Example 30, N-{[trans-4-(Benzyloxy)-1-hydroxycyclohexyl]methyl}-4-hydroxybenzamide] | 0.0236 µM | > 100 µM
10 | O=C(NC[C@H]1CC[C@@H](COc2ccccc2)CC1)c1cc(F)c(O)c(F)c1 [Example 108, 3,5-Difluoro-4-hydroxy-N-{[cis-4-(phenoxymethyl)cyclohexyl]methyl}benzamide] | 0.0178 µM | > 100 µM
11 | Nc1n[nH]cc1C(=O)NC[C@H]1CC[C@@H](COc2ccc(Cl)cc2)CO1 [Example 125, 3-Amino-N-({(2R,5R)-5-[(4-chlorophenoxy)methyl]tetrahydro-2H-pyran-2-yl}methyl)-1H-pyrazole-4-carboxamide] | 0.0125 µM | > 30 µM
12 | O=C(NC[C@H]1CC[C@@H](COc2ccc(Cl)cc2)CO1)c1cn[nH]c1 [Example 120, N-({(2R,5R)-5-[(4-Chlorophenoxy)methyl]tetrahydro-2H-pyran-2-yl}methyl)-1H-pyrazole-4-carboxamide] | 0.0122 µM | > 30 µM
13 | O=C(NC[C@@H]1CC[C@H](COc2ccc(F)cc2)CO1)c1ccc(O)cc1 [Example 76, N-({(2S,5S)-5-[(4-Fluorophenoxy)methyl]tetrahydro-2H-pyran-2-yl}methyl)-4-hydroxybenzamide] | 0.0293 µM | 27.7 µM
14 | O=C(NC[C@]1(O)CC[C@H](Oc2ccc(Cl)cc2)CC1)c1ccc(O)c(F)c1 [Example 33, N-{[trans-4-(4-Chlorophenoxy)-1-hydroxycyclohexyl]methyl}-3-fluoro-4-hydroxybenzamide] | 0.0193 µM | 95.6 µM

Continued, in another order:

Row | IC50 [2] | Compound | IC50 [1]
15 | 0.0082 µM | O=C(NC[C@H]1CC[C@@H](COCc2ccccc2)CO1)c1ccc(O)cc1 [Example 39, 4-Hydroxy-N-{[5S-(benzyloxymethyl)tetrahydro-2H-pyran-2S-yl]methyl}benzamide] | > 100 µM
16 | 0.0065 µM | O=C(NC[C@H]1CC[C@@H](CCOc2ccc(F)cc2)CO1)c1cn[nH]c1 [Example 113, N-({(2R,5S)-5-[2-(4-Fluorophenoxy)ethyl]tetrahydro-2H-pyran-2-yl}methyl)-1H-pyrazole-4-carboxamide] | > 100 µM
17 | 0.0073 µM | O=C(NC[C@]1(O)CC[C@H](Cc2ccccc2)CC1)c1ccc(O)cc1 [Example 68, N-[(trans-4-Benzyl-1-hydroxycyclohexyl)methyl]-4-hydroxybenzamide] | > 100 µM
18 | 0.0072 µM | O=C(NC[C@H]1CC[C@@H](COc2ccc(F)cc2)OC1)c1ccc(O)cc1 [Example 74, N-({(3R,6S)-6-[(4-Fluorophenoxy)methyl]tetrahydro-2H-pyran-3-yl}methyl)-4-hydroxybenzamide] | 54.7 µM
19 | 0.0078 µM | O=C(NC[C@@H]1CC[C@H](CCOc2ccc(F)cc2)CO1)c1cn[nH]c1 [Example 114, N-({(2S,5R)-5-[2-(4-fluorophenoxy)ethyl]tetrahydro-2H-pyran-2-yl}methyl)-1H-pyrazole-4-carboxamide] | 99.4 µM
20 | 0.0103 µM | O=C(NC[C@H]1CC[C@@H](COc2ccc(Cl)c(F)c2)CO1)c1cn[nH]c1 [Example 129, N-({(2R,5R)-5-[(4-Chloro-3-fluorophenoxy)methyl]tetrahydro-2H-pyran-2-yl}methyl)-1H-pyrazole-4-carboxamide] | > 30 µM
21 | 0.0076 µM | O=C(NC[C@H]1CC[C@@H](COc2ccccc2)OC1)c1ccc(O)cc1 [Example 43, (−)-4-Hydroxy-N-{[(3R,6S)-6-(phenoxymethyl)tetrahydro-2H-pyran-3-yl]methyl}benzamide] | > 100 µM
22 | 0.0062 µM | O=C(NC[C@H]1CC[C@@H](COc2ccc(F)cc2)CO1)c1ccc(O)cc1 [Example 75, N-({(2R,5R)-5-[(4-Fluorophenoxy)methyl]tetrahydro-2H-pyran-2-yl}methyl)-4-hydroxybenzamide] | 26.8 µM
23 | 0.01 µM | O=C(NC[C@]1(O)CC[C@H](COc2ccccc2F)CC1)c1ccc(O)c(F)c1 [Example 65, 3-Fluoro-N-({trans-4-[(2-fluorophenoxy)methyl]-1-hydroxycyclohexyl}methyl)-4-hydroxybenzamide] | > 100 µM
24 | 0.0071 µM | Cc1ccc(OC[C@@H]2CC[C@H](CNC(=O)c3cn[nH]c3)OC2)cc1 [Example 123, N-({(2R,5R)-5-[(4-Methylphenoxy)methyl]tetrahydro-2H-pyran-2-yl}methyl)-1H-pyrazole-4-carboxamide] | > 100 µM
25 | 0.0089 µM | O=C(NC[C@]1(O)CC[C@H](Cc2ccc(F)cc2)CC1)c1ccc(O)c(F)c1 [Example 80, 3-Fluoro-N-{[trans-4-(4-fluorobenzyl)-1-hydroxycyclohexyl]methyl}-4-hydroxybenzamide] | > 100 µM
26 | 0.0052 µM | O=C(NC[C@H]1CC[C@@H](OCCOc2ccc(F)cc2)CC1)c1cn[nH]c1 [Example 90, N-({cis-4-[2-(4-Fluorophenoxy)ethoxy]cyclohexyl}methyl)-1H-pyrazole-4-carboxamide] | > 100 µM
27 | 0.0054 µM | O=C(NC[C@H]1CC[C@@H](OCCOc2ccccc2)CC1)c1ccc(O)cc1 [Example 78] | 40.8 µM
28 | 0.0075 µM | O=C(NC[C@@H]1CC[C@H](COc2ccccc2)CO1)c1ccc(O)cc1 [Example 36, (−)-4-Hydroxy-N-{[5R-(phenoxymethyl)tetrahydro-2H-pyran-2R-yl]methyl}benzamide] | 55.2 µM
29 | 0.0095 µM | O=C(NC[C@]1(O)CC[C@H](Cc2ccc(F)cc2)CC1)c1ccc(O)cc1 [Example 81, N-{[trans-4-(4-Fluorobenzyl)-1-hydroxycyclohexyl]methyl}-4-hydroxybenzamide] | 35.7 µM
